Test results as given in patent US20260297060A1, “COMPOUNDS FOR THE DEGRADATION OF MUTANT BRAF” (C4 THERAPEUTICS, INC., priority 2023, published 2026).

System: A375 human melanoma xenografts
Assay: In vivo therapeutic efficacy in A375 human melanoma xenografts (tumor volume, T/C, TGI), Example 14
Set-up: species or system human tumor in female BALB/c nude mice
Conditions: for T/C / TGI: PG-D21
Experimental: Agents were tested in the A375 human melanoma xenografts. Compound 26 and Compound 141 were administered to BALB/c nude mice bearing A375 tumors from PG-DO and dosed via PO twice a day (BID) or third a day (TIP) or dosed P daily (QD) from PG-D. Dabrafenib was administered to BALB/c nude mice bearing A375 tumors from PG-D1 and dosed via P daily (QD). Compound 26 was dosed at 1.5 mg/kg (QD), 2 mg/kg (TID), 3 mg/kg (BID), 6 mg/kg (QD) and 10 mg/kg (BID) for 21 days. Compound 141 was dosed at 0.75 mg/kg (BID), 1 mg/kg (TID), 1.5 mg/kg (BID), 3 mg/kg (QD) and 5 mg/kg (BID) for 21 days. Dabrafenib was dosed at 100 mg/kg for 21 days. This study was non-GLP.
One hundred and thirty-eight female BALB/c nude Mus Musculus mice procured from Shanghai Lingchang Biological Science and Technology Co., LTD between the ages of six to eight weeks and with body weight between eighteen and twenty-two grams were used for the study. A spare mouse was also procured.
The A375 tumor cells were maintained in vitro in DMEM medium supplemented with 10% fetal bovine serum and 1% Penicillin-Streptomycin at 37° C. in an atmosphere of 5% CO2 in air. The tumor cells were routinely sub-cultured twice weekly. The cells growing in an exponential growth phase were harvested and counted for tumor inoculation.
Each mouse was inoculated subcutaneously at the right flank with A375 cells (5×10^6) in 0.2 mL of PBS supplemented with Matrigel (PBS: Matrigel=1:1) for tumor development. Animals were grouped for efficacy study on day 15 after tumor inoculation when the average tumor volume reached 220 mm^3. The test articles administration and the animal numbers in each group are shown in the above experimental Table 75.
At the time of routine monitoring, the animals were checked daily for any effects of tumor growth and treatments on normal behavior such as mobility, food and water consumption (by looking only), body weight gain/loss (body weights were measured twice weekly), eye/hair matting and any other abnormal effect as stated in the protocol. Death and observed clinical signs were recorded on the basis of the numbers of animals within each subset.
Prior to the onset of drug treatment, mice were measured for tumor size in two dimensions using a caliper, and the tumor volume (mm^3) was calculated using formula V=0.5 a×b^2 where a and b are the long and short diameters of the tumor in mm, respectively. Mice were randomized into different treatment groups based on the tumor volume.
The major endpoint was to see if the tumor growth could be delayed or mice could be cured. The tumor size was then used for calculations of T/C value. The T/C value (in percent) is an indication of antitumor effectiveness; T and C are the mean volumes of the treated and control groups, respectively on specified day.
TGI was calculated for each group using the formula: TGI (%)=[1−(Ti−T0)/(Ci−C0)]×100; Ti is the average tumor volume of a treatment group on a given day, T0 is the average tumor volume of the treatment group on the day of treatment start, Ci is the average tumor volume of the vehicle control group on the same day with Ti, and C0 is the average tumor volume of the vehicle group on the day of treatment start.
A one-way ANOVA followed by Dunnett's multiple comparison test was performed to compare tumor volume among vehicle group (Group 1) and treatment groups (Group 2-Group 12). All data were analyzed using GraphPad Prism, ns indicates p>0.05, * indicates p<0.05, ** indicates p<0.01, *** indicates p<0.001 and **** indicates p<0.0001.
Tumor growth inhibition of Compound 26, Compound 141 and dabrafenib in the treatment of female BALB/c nude mice bearing A375 xenografts was calculated based on tumor volume measured on […]. TGI and T/C were calculated respectively and the data are detailed in Table 82.

[1] = Compound 141, 1.5 mg/kg p.o. BID × 21 days

What does the source list for `CCN(C)S(=O)(=O)Nc1ccc(F)c(Oc2ccc3ncn(C4CC5(CCN(C6CC7(C6)CN(c6cc8c(cc6F)c(N6CCC(=O)NC6=O)nn8C)C7)CC5)C4)c(=O)c3c2)c1C#N` (stereo not drawn) [Compound 141, 6-[2-cyano-3-[[ethyl(methyl)sulfamoyl]amino]-6-fluoro-phenoxy]-3-[7-[2-[3-(2,4-dioxohexahydropyrimidin-1-yl)-5-fluoro-1-methyl-indazol-6-yl]-2-azaspiro[3.3]heptan-6-yl]-7-azaspiro[3.5]nonan-2-yl]-4-oxo-quinazoline]?
Tumor volume (1.5 mg/kg p.o. BID x 21 days, day 35 (dosing-free regrowth), mean ± SEM): 1374 ± 116 mm^3; Tumor volume (1.5 mg/kg p.o. BID x 21 days, day 39 (dosing-free regrowth), mean ± SEM): 1709 ± 117 mm^3; Tumor volume (1.5 mg/kg p.o. BID x 21 days, day 42 (dosing-free regrowth), mean ± SEM): 2051 ± 177 mm^3; Tumor volume (1.5 mg/kg p.o. BID x 21 days, day 46 (dosing-free regrowth), mean ± SEM): 2593 ± 258 mm^3; Tumor volume (1.5 mg/kg p.o. BID x 21 days, day 49 (dosing-free regrowth), mean ± SEM): 2727 ± 382 mm^3; Tumor volume (1.5 mg/kg p.o. BID x 21 days, day 53 (dosing-free regrowth), mean ± SEM): 3079 ± 78 mm^3; Tumor volume (3 mg/kg p.o. QD x 21 days, day 0, mean ± SEM): 220 ± 15 mm^3; Tumor volume (3 mg/kg p.o. QD x 21 days, day 4, mean ± SEM): 253 ± 15 mm^3; Tumor volume (3 mg/kg p.o. QD x 21 days, day 7, mean ± SEM): 214 ± 17 mm^3; Tumor volume (3 mg/kg p.o. QD x 21 days, day 11, mean ± SEM): 169 ± 15 mm^3; Tumor volume (3 mg/kg p.o. QD x 21 days, day 14, mean ± SEM): 144 ± 16 mm^3; Tumor volume (3 mg/kg p.o. QD x 21 days, day 18, mean ± SEM): 172 ± 19 mm^3; Tumor volume (3 mg/kg p.o. QD x 21 days, day 21, mean ± SEM): 208 ± 30 mm^3; Tumor volume (3 mg/kg p.o. QD x 21 days, day 25 (dosing-free regrowth), mean ± SEM): 486 ± 63 mm^3; Tumor volume (3 mg/kg p.o. QD x 21 days, day 28 (dosing-free regrowth), mean ± SEM): 773 ± 63 mm^3; Tumor volume (3 mg/kg p.o. QD x 21 days, day 32 (dosing-free regrowth), mean ± SEM): 985 ± 85 mm^3; Tumor volume (3 mg/kg p.o. QD x 21 days, day 35 (dosing-free regrowth), mean ± SEM): 1339 ± 71 mm^3; Tumor volume (3 mg/kg p.o. QD x 21 days, day 39 (dosing-free regrowth), mean ± SEM): 1690 ± 103 mm^3; Tumor volume (3 mg/kg p.o. QD x 21 days, day 42 (dosing-free regrowth), mean ± SEM): 2099 ± 177 mm^3; Tumor volume (3 mg/kg p.o. QD x 21 days, day 46 (dosing-free regrowth), mean ± SEM): 2737 ± 176 mm^3; Tumor volume (3 mg/kg p.o. QD x 21 days, day 49 (dosing-free regrowth), mean ± SEM): 3078 ± 168 mm^3; Tumor volume (3 mg/kg p.o. QD x 21 days, day 53 (dosing-free regrowth)): 3659 mm^3; Tumor Size on PG-D21 (Mean ± SEM) (3 mg/kg p.o. QD × 21 days): 208 ± 30 mm^3; T/C (3 mg/kg p.o. QD × 21 days): 11.0%; TGI (3 mg/kg p.o. QD × 21 days): 100.8%; Tumor volume (5 mg/kg p.o. BID x 21 days, day 0, mean ± SEM): 220 ± 15 mm^3; Tumor volume (5 mg/kg p.o. BID x 21 days, day 4, mean ± SEM): 166 ± 11 mm^3; Tumor volume (5 mg/kg p.o. BID x 21 days, day 7, mean ± SEM): 100 ± 7 mm^3; Tumor volume (5 mg/kg p.o. BID x 21 days, day 11, mean ± SEM): 60 ± 4 mm^3; Tumor volume (5 mg/kg p.o. BID x 21 days, day 14, mean ± SEM): 38 ± 2 mm^3; Tumor volume (5 mg/kg p.o. BID x 21 days, day 18, mean ± SEM): 27 ± 3 mm^3; Tumor volume (5 mg/kg p.o. BID x 21 days, day 21, mean ± SEM): 23 ± 3 mm^3; Tumor volume (5 mg/kg p.o. BID x 21 days, day 25 (dosing-free regrowth), mean ± SEM): 31 ± 9 mm^3; Tumor volume (5 mg/kg p.o. BID x 21 days, day 28 (dosing-free regrowth), mean ± SEM): 56 ± 24 mm^3; Tumor volume (5 mg/kg p.o. BID x 21 days, day 32 (dosing-free regrowth), mean ± SEM): 109 ± 40 mm^3; Tumor volume (5 mg/kg p.o. BID x 21 days, day 35 (dosing-free regrowth), mean ± SEM): 190 ± 67 mm^3; Tumor volume (5 mg/kg p.o. BID x 21 days, day 39 (dosing-free regrowth), mean ± SEM): 345 ± 111 mm^3; Tumor volume (5 mg/kg p.o. BID x 21 days, day 42 (dosing-free regrowth), mean ± SEM): 484 ± 147 mm^3; Tumor volume (5 mg/kg p.o. BID x 21 days, day 46 (dosing-free regrowth), mean ± SEM): 732 ± 181 mm^3; Tumor volume (5 mg/kg p.o. BID x 21 days, day 49 (dosing-free regrowth), mean ± SEM): 1015 ± 308 mm^3; Tumor volume (5 mg/kg p.o. BID x 21 days, day 53 (dosing-free regrowth), mean ± SEM): 1470 ± 351 mm^3; Tumor volume (5 mg/kg p.o. BID x 21 days, day 56 (dosing-free regrowth), mean ± SEM): 1433 ± 181 mm^3; Tumor Size on PG-D21 (Mean ± SEM) (5 mg/kg p.o. BID × 21 days): 23 ± 3 mm^3; T/C (5 mg/kg p.o. BID × 21 days): 1.2%; TGI (5 mg/kg p.o. BID × 21 days): 111.8%; Tumor Size on PG-D21 (Mean ± SEM) [1]: 208 ± 21 mm^3; T/C [1]: 11.1%; TGI [1]: 100.7%
